Results published in patent publication US20260226047A1, “BENZIMIDAZOLE AND AZA-BENZIMIDAZOLE BASED IL-17A MODULATORS AND USES THEREOF” (DICE ALPHA, INC., priority 2023, published 2026).

target: T1, IL-17A/A (Homo sapiens, UniProt Q16552); assay: IL-17A/A HEK-Blue Cell Assay; type: cell-based; conditions: IL-17A/A inhibition, HEK-Blue IL-17A reporter cell line, SEAP readout at A630, incubated for 20 hours
T1 construct: purchased Genscript Z03228
T1 sequence (Q16552 24-155): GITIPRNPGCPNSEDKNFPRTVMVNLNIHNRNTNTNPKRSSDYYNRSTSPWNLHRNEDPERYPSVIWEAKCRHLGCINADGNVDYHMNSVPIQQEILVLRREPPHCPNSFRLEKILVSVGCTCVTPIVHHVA
Procedure: Example 3: IL-17A/A HEK-Blue Cell Assay
The HEK-Blue IL-17A reporter cell line (Fisher #NC1408637) was used for cell-based IL-17A/A inhibition assays. Cells were grown and prepared for assays according to the manufacturer's instructions. This cell line consists of HEK 293 cells that were designed to expressed IL-17RA, IL-17RC, and the ActI adapter molecule, the combination of which, when stimulated by IL-17A/A activates a NFκB promoter and drives expression of a recombinant Secreted Alkaline Phosphatase (SEAP) gene protein. Media from the cells is then added to a development reagent (Quanti-Blue Substrate, Fisher #NC9711613), and read at A630.
Compounds were titrated in DMSO, with a top final compound concentration of 10 μM, 1 uM, or 0.3 μM, and added to the cells immediately before adding IL-17A/A (Genscript #Z03228). The cells, compound, and IL-17A/A were then incubated for 20 hours before media was removed for SEAP analysis. The resulting inhibition curve was then analyzed using Graphpad Prism 7.0, and IC50 values were determined using a 4-parameter nonlinear fit. DMSO was added to a universal final concentration of 0.1% to optimize background.

Going from `CCn1nccc1C(=O)N[C@H](c1nc2c(F)c(CC3CCC(C(F)(F)F)NC3=O)ccc2[nH]1)C(C1CC1)C1CC1` (single isomer, unassigned) [Compound 49] to `CCn1nccc1C(=O)N[C@H](c1nc2c(F)c(C[C@H]3C[C@@H](C(F)(F)F)NC3=O)ccc2[nH]1)C(C1CC1)C1CC1` [Compound 40], the IC50 falls from > 1 µM to < 0.1 µM.

Compared with `CCn1nccc1C(=O)N[C@H](c1nc2cc(C(C)C3CCNC3=O)ccc2[nH]1)C(C1CC1)C1CC1` (stereo partly drawn) [Compound 22], `CCn1nccc1C(=O)N[C@H](c1nc2ccc(C(C)C3CCCNC3=O)cc2[nH]1)C(C1CC1)C1CC1` (stereo partly drawn) [Compound 84] is lower in IC50: > 1 µM for the first, 0.1 to 1 µM for the second. The second is the more potent here.

`CCn1nccc1C(=O)N[C@H](c1nc2c(F)c(C[C@H]3CCNC3=O)ccc2[nH]1)C(C1CC1)C1CC1` (single isomer, unassigned) [Compound 1] and `CCn1nccc1C(=O)N[C@H](c1nc2c(F)c(CC3CCC(C(F)(F)F)NC3=O)ccc2[nH]1)C(C1CC1)C1CC1` (single isomer, unassigned) [Compound 51] fall in the same range of IC50: 0.1 to 1 µM for the first, 0.1 to 1 µM for the second.

`CCn1nccc1C(=O)N[C@H](c1nc2cc(CC3CCC(C(F)(F)F)NC3=O)ccc2[nH]1)C(C1CC1)C1CC1` (stereo partly drawn) [Compound 43] and `CCn1nccc1C(=O)N[C@H](c1nc2cc(C[C@@H]3C[C@@H](C(F)(F)F)NC3=O)ccc2[nH]1)C(C1CC1)C1CC1` (single isomer, unassigned) [Compound 4] fall in the same range of IC50: 0.1 to 1 µM for the first, 0.1 to 1 µM for the second.

`CCn1nccc1C(=O)N[C@H](c1nc2ccc(CC3(C)CCNC3=O)cc2[nH]1)C(C1CC1)C1CC1` (stereo partly drawn) [Compound 19] and `CCn1nccc1C(=O)N[C@H](c1nc2ccc(C[C@@H]3CCCNC3=O)cc2[nH]1)C(C1CC1)C1CC1` [Compound 18] cannot be ordered by IC50: > 1 µM for the first, > 1 µM for the second.

First: CC[C@@H](c1ccc(F)cc1)[C@H](NC(=O)c1ccnn1CC)c1nc2ccc(C[C@H]3CCNC3=O)cc2[nH]1 [Compound 63]
Second: CC[C@@H](C1CCC1)[C@H](NC(=O)c1ccnn1CC)c1nc2ccc(C[C@H]3CCNC3=O)cc2[nH]1 [Compound 65]
The IC50 of the first is higher: > 1 µM for the first, 0.1 to 1 µM for the second.

`CCn1nccc1C(=O)N[C@H](c1nc2cc(CC3CCC(C(F)(F)F)NC3=O)cc(F)c2[nH]1)C(C1CC1)C1CC1` (stereo partly drawn) [Compound 54] and `CCn1nccc1C(=O)N[C@H](c1nc2cc(CC3CC(C(F)(F)F)NC3=O)cc(F)c2[nH]1)C(C1CC1)C1CC1` (stereo partly drawn) [Compound 42] cannot be ordered by IC50: > 1 µM for the first, > 1 µM for the second.

First: CCn1nccc1C(=O)N[C@H](c1nc2cc(C[C@@H]3C[C@H](C(F)(F)F)NC3=O)ccc2[nH]1)C(C1CC1)C1CC1 (single isomer, unassigned) [Compound 5]
Second: CCn1nccc1C(=O)N[C@H](c1nc2cc(C[C@H]3C[C@@H](C(F)(F)F)NC3=O)ccc2[nH]1)C(C1CC1)C1CC1 (single isomer, unassigned) [Compound 3]
The IC50 of the first is higher: > 1 µM for the first, < 0.1 µM for the second. The second is the more potent here.

`CCn1nccc1C(=O)N[C@@H](c1nc2nc(C[C@H]3CCNC3=O)ccc2[nH]1)C1CCC(F)(F)CC1` [Compound 28] and `CCn1nccc1C(=O)N[C@H](c1nc2nc(C[C@H]3CCNC3=O)ccc2[nH]1)C1CCC(F)(F)CC1` [Compound 10] cannot be ordered by IC50: > 1 µM for the first, > 1 µM for the second.

First: CCn1nccc1C(=O)N[C@H](c1nc2cc(CC3CCC(C(F)(F)F)NC3=O)cc(F)c2[nH]1)C(C1CC1)C1CC1 (stereo partly drawn) [Compound 52]
Second: CCn1nccc1C(=O)N[C@H](c1nc2cc(C[C@H]3C[C@@H](C(F)(F)F)NC3=O)cc(F)c2[nH]1)C(C1CC1)C1CC1 [Compound 34]
The IC50 of the first is higher: 0.1 to 1 µM for the first, < 0.1 µM for the second.

First: CCn1nccc1C(=O)N[C@H](c1nc2cc(CC3CCC(C(F)(F)F)NC3=O)cc(F)c2[nH]1)C(C1CC1)C1CC1 (stereo partly drawn) [Compound 55]
Second: CCn1nccc1C(=O)N[C@H](c1nc2cc(CC3CCC(C(F)(F)F)NC3=O)ccc2[nH]1)C(C1CC1)C1CC1 (stereo partly drawn) [Compound 45]
The IC50 of the first is higher: > 1 µM for the first, 0.1 to 1 µM for the second.

First: CCn1nccc1C(=O)N[C@H](c1nc2cc(C[C@H]3CCNC3=O)ccc2[nH]1)C(C1CC1)C1CC1 [Compound 16]
Second: CCn1nccc1C(=O)N[C@H](c1nc2cc(C[C@@H]3CCNC3=O)ccc2[nH]1)C(C1CC1)C1CC1 [Compound 27]
The IC50 of the first is lower: 0.1 to 1 µM for the first, > 1 µM for the second. The first is the more potent here.

`CCn1nccc1C(=O)N[C@H](c1nc2ccc(C(C)C3CCCNC3=O)cc2[nH]1)C(C1CC1)C1CC1` (stereo partly drawn) [Compound 83] and `CCn1nccc1C(=O)N[C@H](c1nc2cc(C(C)C3CCNC3=O)ccc2[nH]1)C(C1CC1)C1CC1` (stereo partly drawn) [Compound 24] cannot be ordered by IC50: > 1 µM for the first, > 1 µM for the second.

`Cn1nccc1C(=O)N[C@H](c1nc2ccc(C[C@H]3CCNC3=O)cc2[nH]1)C(C1CC1)C1CC1` [Compound 59] and `CC(C)n1nccc1C(=O)N[C@H](c1nc2ccc(C[C@H]3CCNC3=O)cc2[nH]1)C(C1CC1)C1CC1` [Compound 58] fall in the same range of IC50: 0.1 to 1 µM for the first, 0.1 to 1 µM for the second.

First: CCn1nccc1C(=O)N[C@H](c1nc2cc(C[C@@H]3CCNC3=O)ccc2[nH]1)C1CCC(F)(F)CC1 [Compound 8]
Second: CCn1nccc1C(=O)N[C@H](c1nc2cc(C[C@H]3CCNC3=O)ccc2[nH]1)C1CCC(F)(F)CC1 [Compound 7]
The IC50 of the first is higher: > 1 µM for the first, 0.1 to 1 µM for the second. The second is the more potent here.

Compared with `CCn1nccc1C(=O)N[C@H](c1nc2ccc(C[C@H]3CCNC3=O)cc2[nH]1)[C@@H](C)[C@H]1CC[C@H](C)CC1` [Compound 66], `CCn1nccc1C(=O)N[C@H](c1nc2ccc(C[C@H]3CCNC3=O)cc2[nH]1)[C@H]1CC[C@H](C)CC1` [Compound 61] is lower in IC50: 0.1 to 1 µM for the first, < 0.1 µM for the second.

Compared with `CCn1nccc1C(=O)N[C@H](c1nc2c(F)c(CC3CCNC3=O)ccc2[nH]1)C1CCC(F)(F)CC1` (stereo partly drawn) [Compound 11], `CCn1nccc1C(=O)N[C@H](c1nc2c(F)c(C[C@@H]3CCNC3=O)ccc2[nH]1)C1CCC(F)(F)CC1` [Compound 12] is higher in IC50: 0.1 to 1 µM for the first, > 1 µM for the second. The first is the more potent here.

`Cc1nonc1C(=O)N[C@H](c1nc2ccc(C[C@H]3CCNC3=O)cc2[nH]1)C1CCC(F)(F)CC1` [Compound 67] and `CCc1nonc1C(=O)N[C@H](c1nc2ccc(C[C@H]3CCNC3=O)cc2[nH]1)C1CCC(F)(F)CC1` [Compound 25] fall in the same range of IC50: 0.1 to 1 µM for the first, 0.1 to 1 µM for the second.

`CCn1nccc1C(=O)N[C@H](c1nc2ccc(C[C@H]3CCNC3=O)cc2[nH]1)C(C1CCC1)C1CCC1` [Compound 64] and `CCn1nccc1C(=O)N[C@H](c1nc2ccc(C[C@H]3CCCNC3=O)cc2[nH]1)C(C1CC1)C1CC1` [Compound 35] fall in the same range of IC50: 0.1 to 1 µM for the first, 0.1 to 1 µM for the second.

`CCn1nccc1C(=O)N[C@H](c1nc2ccc(C[C@@H]3CCCNC3=O)c(F)c2[nH]1)C(C1CC1)C1CC1` [Compound 36] and `CCn1nccc1C(=O)N[C@H](c1nc2cc(C[C@@H]3CCNC3=O)cc(F)c2[nH]1)C(C1CC1)C1CC1` [Compound 31] cannot be ordered by IC50: > 1 µM for the first, > 1 µM for the second.

`CCn1nccc1C(=O)N[C@H](c1nc2ccc(CC3CC(F)(F)CNC3=O)cc2[nH]1)C(C1CC1)C1CC1` (stereo partly drawn) [Compound 73] and `CCn1nccc1C(=O)N[C@H](c1nc2ccc(CC3CC(C)NC3=O)cc2[nH]1)C(C1CC1)C1CC1` (stereo partly drawn) [Compound 72] fall in the same range of IC50: 0.1 to 1 µM for the first, 0.1 to 1 µM for the second.

First: CCn1nccc1C(=O)N[C@H](c1nc2cc(C[C@H]3CCNC3=O)ccc2[nH]1)C1CCCCCC1 [Compound 6]
Second: CCn1nccc1C(=O)N[C@H](c1nc2ccc(C[C@H]3CCCNC3=O)cc2[nH]1)[C@H]1CC[C@H](C)CC1 [Compound 87]
The IC50 of the first is lower: < 0.1 µM for the first, > 1 µM for the second. The first is the more potent here.

Going from `CCn1nccc1C(=O)N[C@H](c1nc2cc(CC3CCC(C(F)(F)F)NC3=O)ccc2[nH]1)C(C1CC1)C1CC1` (stereo partly drawn) [Compound 44] to `CCn1nccc1C(=O)N[C@H](c1nc2c(F)c(CC3CCC(C(F)(F)F)NC3=O)ccc2[nH]1)C(C1CC1)C1CC1` (single isomer, unassigned) [Compound 50], the IC50 falls from > 1 µM to < 0.1 µM.

First: CCn1nccc1C(=O)N[C@H](c1nc2ccc(C(C)C3CCCNC3=O)cc2[nH]1)C(C1CC1)C1CC1 (stereo partly drawn) [Compound 82]
Second: CCn1nccc1C(=O)N[C@H](c1nc2cc(C)c(CC3CCNC3=O)cc2[nH]1)C(C1CC1)C1CC1 (stereo partly drawn) [Compound 26]
The IC50 of the first is lower: 0.1 to 1 µM for the first, > 1 µM for the second.

First: O=C1N[C@H](C(F)(F)F)C[C@H]1Cc1ccc2nc([C@@H](NC(=O)C3(F)CC3)C(C3CC3)C3CC3)[nH]c2c1 [Compound 68]
Second: O=C1N[C@H](C(F)(F)F)C[C@@H]1Cc1ccc2nc([C@@H](NC(=O)C3(F)CC3)C(C3CC3)C3CC3)[nH]c2c1 [Compound 69]
The IC50 of the first is higher: > 1 µM for the first, 0.1 to 1 µM for the second. The second is the more potent here.

First: CCn1nccc1C(=O)N[C@H](c1nc2ccc(C(C)C3CCCNC3=O)cc2[nH]1)C(C1CC1)C1CC1 (stereo partly drawn) [Compound 85]
Second: CCn1nccc1C(=O)N[C@H](c1nc2ccc(CC3C(=O)NCC3C(F)(F)F)cc2[nH]1)C(C1CC1)C1CC1 (stereo partly drawn) [Compound 77]
The IC50 of the first is higher: > 1 µM for the first, 0.1 to 1 µM for the second.

First: CCn1nccc1C(=O)N[C@H](c1nc2cc(C[C@@H]3CCNC3=O)cc(F)c2[nH]1)C1CCC(F)(F)CC1 [Compound 14]
Second: CCn1nccc1C(=O)N[C@H](c1nc2cc(C[C@H]3CCNC3=O)cc(F)c2[nH]1)C(C1CC1)C1CC1 [Compound 32]
The IC50 of the first is higher: > 1 µM for the first, 0.1 to 1 µM for the second.

Compared with `CCn1nccc1C(=O)N[C@H](c1nc2cc(CC3CCC(C(F)(F)F)NC3=O)ccc2[nH]1)C(C1CC1)C1CC1` (stereo partly drawn) [Compound 46], `CCn1nccc1C(=O)N[C@H](c1nc2c(F)c(CC3CCC(C(F)(F)F)NC3=O)ccc2[nH]1)C(C1CC1)C1CC1` (single isomer, unassigned) [Compound 47] is lower in IC50: > 1 µM for the first, 0.1 to 1 µM for the second. The second is the more potent here.

With `CCn1nccc1C(=O)N[C@H](c1nc2c(F)c(C[C@H]3C[C@H](C(F)(F)F)NC3=O)ccc2[nH]1)C(C1CC1)C1CC1` [Compound 38] the IC50 was 0.1 to 1 µM.
